IC50 data for 36 compounds are collected here from patent US20110118262A1, “Pyrrolidinyl and Piperidinyl Compounds Useful as NHE-1 Inhibitiors” (BOEHRINGER INGELHEIM INTERNATIONAL GMBH, priority 2008, published 2011).

T1 sequence (P19634 whole entry): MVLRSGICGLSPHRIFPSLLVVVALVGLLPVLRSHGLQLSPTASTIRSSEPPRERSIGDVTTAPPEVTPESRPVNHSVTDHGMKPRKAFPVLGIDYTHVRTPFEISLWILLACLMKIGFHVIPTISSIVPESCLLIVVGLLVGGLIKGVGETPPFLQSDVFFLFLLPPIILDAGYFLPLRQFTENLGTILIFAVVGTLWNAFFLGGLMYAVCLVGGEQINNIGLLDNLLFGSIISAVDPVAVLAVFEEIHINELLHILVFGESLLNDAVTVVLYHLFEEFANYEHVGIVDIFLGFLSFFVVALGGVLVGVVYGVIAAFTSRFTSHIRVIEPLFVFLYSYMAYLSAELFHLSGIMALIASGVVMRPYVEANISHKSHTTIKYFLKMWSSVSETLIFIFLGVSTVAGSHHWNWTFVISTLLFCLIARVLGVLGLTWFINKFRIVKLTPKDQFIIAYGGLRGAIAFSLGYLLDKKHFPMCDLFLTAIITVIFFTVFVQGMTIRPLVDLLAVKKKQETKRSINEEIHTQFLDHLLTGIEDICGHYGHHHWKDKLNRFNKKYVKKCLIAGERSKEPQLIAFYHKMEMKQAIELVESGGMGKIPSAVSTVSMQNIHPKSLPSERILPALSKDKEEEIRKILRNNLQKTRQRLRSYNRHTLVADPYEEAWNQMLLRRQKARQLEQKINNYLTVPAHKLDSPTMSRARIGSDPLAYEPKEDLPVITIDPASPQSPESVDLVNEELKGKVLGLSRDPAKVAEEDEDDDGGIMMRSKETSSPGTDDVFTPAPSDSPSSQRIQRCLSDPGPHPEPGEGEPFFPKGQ

The experiment concerns the target T1, NHE-1 (Homo sapiens, UniProt P19634).
T1 construct: endogenous in cells; host or cells: HT-29
Nature of the experiment: Evaluation of NHE-1 Inhibition (pHi) in HT-29 cells. In kind it is cell-based. The following applies: BCECF dye, 50% inhibition of the intracellular pH recovery, read-out: NHE1 HT29 pHi IC50. The procedure: Evaluation of NHE-1 Inhibition (pHi)
HT-29 cells resuspended in DMEM supplemented with 10% FBS, 1% NEAA, and 1% Penn-Strep are seeded at 10,000 cells/well in collagen coated 384 well plates which are then incubated for 24 hours at 37° C. The next day, the medium is removed and the cells are dye (Invitrogen's BCECF) loaded for 30 minutes at 37° C., washed three times with an acid loading buffer (10 mM NH4Cl, 1.8 mM CaCl2, 90 mM Choline Cl, 5 mM Glucose, 15 mM Hepes, 5 mM KCl, 1 mM MgCl2, adjusted to pH 7.5 with KOH) and further incubated at RT for 30 minutes.
At the end of the incubation, the buffer is removed and 5 uL of fresh acid loading buffer is added to each well to prevent the dessication of the cells. The plate is placed in a Hamamatsu FDSS6000 instrument and candidate compounds are added to the cells.
Take `N=C(N)NC(=O)c1ccc(C2CCN(C(=O)Cc3ccc(F)cc3)CC2)c(C(F)(F)F)c1` [N-(4-{1-[2-(4-Fluoro-phenyl)-acetyl]-piperidin-4-yl}-3-trifluoromethyl-benzoyl)-guanidine]: the IC50 came to 135 nM. Turning to `COc1ccc(CC(=O)N2CCC(c3ccc(C(=O)NC(=N)N)cc3C(F)(F)F)CC2)cc1` [N-(4-{1-[2-(4-Methoxy-phenyl)-acetyl]-piperidin-4-yl}-3-trifluoromethyl-benzoyl)-guanidine], the IC50 turned out to be 140 nM. As to `N#Cc1ccc(CC(N)C(=O)N2CCC(c3ccc(C(=O)NC(=N)N)cc3C(F)(F)F)CC2)cc1` (stereo not drawn) [N-(4-{1-[2-Amino-3-(4-cyano-phenyl)-propionyl]-piperidin-4-yl}-3-trifluoromethyl-benzoyl)-guanidine], the IC50 was 58 nM. Consider `N=C(N)NC(=O)c1ccc(C2CCN(C(=O)c3cncc(-c4ccc(F)cc4)c3)CC2)c(C(F)(F)F)c1` [N-(4-{1-[5-(4-Fluoro-phenyl)-pyridine-3-carbonyl]-piperidin-4-yl}-3-trifluoromethyl-benzoyl)-guanidine], for which the IC50 was 185 nM. Regarding `COc1cccc(-c2ccc(C(=O)N3CCC(c4ccc(C(=O)NC(=N)N)cc4C(F)(F)F)CC3)cn2)c1` [N-(4-{1-[6-(3-Methoxy-phenyl)-pyridine-3-carbonyl]-piperidin-4-yl}-3-trifluoromethyl-benzoyl)-guanidine], the IC50 was 250 nM. Regarding `CS(=O)(=O)c1ccc(Oc2ccc(C(=O)N3CCC(c4ccc(C(=O)NC(=N)N)cc4C(F)(F)F)CC3)cn2)cc1` [N-(4-{1-[6-(4-Methanesulfonyl-phenoxy)-pyridine-3-carbonyl]-piperidin-4-yl}-3-trifluoromethyl-benzoyl)-guanidine], the IC50 amounted to 54 nM. Turning to `COc1cc(C2CCN(C(C)=O)CC2)c(C(F)(F)F)cc1C(=O)NC(=N)N` [N-[4-(1-Acetyl-piperidin-4-yl)-2-methoxy-5-trifluoromethyl-benzoyl]-guanidine], the IC50 was 14 nM. As for `CC(=O)N1CCC(c2cc(C)c(C(=O)NC(=N)N)cc2C(F)(F)F)CC1` [N-[4-(1-Acetyl-piperidin-4-yl)-2-methyl-5-trifluoromethyl-benzoyl]-guanidine], the figure is 9 nM. Consider `CC(=O)N1CCC(c2ccc(C(=O)NC(=N)N)cc2S(C)(=O)=O)CC1` [N-[4-(1-Acetyl-piperidin-4-yl)-3-methanesulfonyl-benzoyl]-guanidine], for which the IC50 came out at 18 nM. For `CC(=O)N1CCC(c2ccc(C(=O)NC(=N)N)cc2C(F)(F)F)CC1` [N-[4-(1-Acetyl-piperidin-4-yl)-3-trifluoromethyl-benzoyl]-guanidine], the IC50 came out at 9 nM. Consider `CC(=O)N1CCC(c2cc(C)c(C(=O)NC(=N)N)cc2S(C)(=O)=O)CC1` [N-[4-(1-Acetyl-piperidin-4-yl)-5-methanesulfonyl-2-methyl-benzoyl]-guanidine], for which the IC50 came out at 12 nM. Regarding `N=C(N)NC(=O)c1ccc(C2CCN(C(=O)c3ccccc3)CC2)c(C(F)(F)F)c1` [N-[4-(1-Benzoyl-piperidin-4-yl)-3-trifluoromethyl-benzoyl]-guanidine], the IC50 was 45 nM.

With `CCCC(=O)N1CCC(c2ccc(C(=O)NC(=N)N)cc2C(F)(F)F)CC1` [N-[4-(1-Butyryl-piperidin-4-yl)-3-trifluoromethyl-benzoyl]-guanidine], the half-maximal inhibitory concentration (IC50) turned out to be 30 nM.

As for `N=C(N)NC(=O)c1ccc(C2CCN(C(=O)C3CCCC3)CC2)c(C(F)(F)F)c1` [N-[4-(1-Cyclopentanecarbonyl-piperidin-4-yl)-3-trifluoromethyl-benzoyl]-guanidine], the IC50 turned out to be 77 nM. On to `N=C(N)NC(=O)c1ccc(C2CCN(C(=O)C3CC3)CC2)c(C(F)(F)F)c1` [N-[4-(1-Cyclopropanecarbonyl-piperidin-4-yl)-3-trifluoromethyl-benzoyl]-guanidine], for which the IC50 turned out to be 16 nM. Take `CC(C)C(=O)N1CCC(c2ccc(C(=O)NC(=N)N)cc2C(F)(F)F)CC1` [N-[4-(1-Isobutyryl-piperidin-4-yl)-3-trifluoromethyl-benzoyl]-guanidine]: the IC50 was determined as 25 nM. As for `CCC(=O)N1CCC(c2ccc(C(=O)NC(=N)N)cc2C(F)(F)F)CC1` [N-[4-(1-Propionyl-piperidin-4-yl)-3-trifluoromethyl-benzoyl]-guanidine], the figure is 12 nM; as for `COCC(=O)N1CCC(c2cc(OC)c(C(=O)NC(=N)N)cc2C(F)(F)F)CC1` [N-{2-Methoxy-4-[1-(2-methoxy-acetyl)-piperidin-4-yl]-5-trifluoromethyl-benzoyl}-guanidine], 9 nM; as for `COc1cc(C2CCN(C(=O)c3ccc4c(c3)CCC(=O)N4)CC2)c(C(F)(F)F)cc1C(=O)NC(=N)N` [N-{2-Methoxy-4-[1-(2-oxo-1,2,3,4-tetrahydro-quinoline-6-carbonyl)-piperidin-4-yl]-5-trifluoromethyl-benzoyl}-guanidine], 4 nM.

Consider `COc1cc(C2CCN(C(=O)c3ccn[nH]3)CC2)c(C(F)(F)F)cc1C(=O)NC(=N)N` [N-{2-Methoxy-4-[1-(2H-pyrazole-3-carbonyl)-piperidin-4-yl]-5-trifluoromethyl-benzoyl}-guanidine], for which the IC50 was found to be 6 nM. Consider `COc1cc(C2CCN(C(=O)c3ccccn3)CC2)c(C(F)(F)F)cc1C(=O)NC(=N)N` [N-{2-Methoxy-4-[1-(pyridine-2-carbonyl)-piperidin-4-yl]-5-trifluoromethyl-benzoyl}-guanidine], for which the IC50 came out at 43 nM. Consider `Cc1cc(C2CCN(C(=O)c3ccc4c(c3)CCC(=O)N4)CC2)c(C(F)(F)F)cc1C(=O)NC(=N)N` [N-{2-Methyl-4-[1-(2-oxo-1,2,3,4-tetrahydro-quinoline-6-carbonyl)-piperidin-4-yl]-5-trifluoromethyl-benzoyl}-guanidine], for which the half-inhibitory concentration (IC50) was 63 nM. Consider `Cc1ccc(C(=O)N2CCC(c3cc(C)c(C(=O)NC(=N)N)cc3C(F)(F)F)CC2)cn1` [N-{2-Methyl-4-[1-(6-methyl-pyridine-3-carbonyl)-piperidin-4-yl]-trifluoromethyl-benzoyl}-guanidine], for which the IC50 worked out at 82 nM. As for `Cc1cc(C2CCN(C(=O)c3ccc(=O)[nH]c3)CC2)c(C(F)(F)F)cc1C(=O)NC(=N)N` [N-{2-Methyl-4-[1-(6-oxo-1,6-dihydro-pyridine-3-carbonyl)-piperidin-4-yl]-5-trifluoromethyl-benzoyl}-guanidine], the figure is 30 nM.

With `Cc1cc(C2CCN(C(=O)c3ncco3)CC2)c(C(F)(F)F)cc1C(=O)NC(=N)N` [N-{2-Methyl-4-[1-(oxazole-2-carbonyl)-piperidin-4-yl]-5-trifluoromethyl-benzoyl}-guanidine], the IC50 is 12 nM. `Cc1cc(C2CCN(C(=O)c3cccnc3)CC2)c(C(F)(F)F)cc1C(=O)NC(=N)N` [N-{2-Methyl-4-[1-(pyridine-3-carbonyl)-piperidin-4-yl]-5-trifluoromethyl-benzoyl}-guanidine]: the concentration for half-maximal inhibition (IC50) turned out to be 30 nM. On to `Cc1cc(C2CCN(C(=O)c3ccncc3)CC2)c(C(F)(F)F)cc1C(=O)NC(=N)N` [N-{2-Methyl-4-[1-(pyridine-4-carbonyl)-piperidin-4-yl]-5-trifluoromethyl-benzoyl}-guanidine], for which the IC50 worked out at 7 nM.

On to `N=C(N)NC(=O)c1ccc(C2CCN(C(=O)c3cccc(C(F)(F)F)c3)CC2)c(C(F)(F)F)c1` [N-{3-Trifluoromethyl-4-[1-(3-trifluoromethyl-benzoyl)-piperidin-4-yl]-benzoyl}-guanidine], for which the IC50 was 250 nM.

For `N=C(N)NC(=O)c1ccc(C2CCN(C(=O)c3ccc(C(F)(F)F)cc3)CC2)c(C(F)(F)F)c1` [N-{3-Triuoromethyl-4-[1-(4-trifluoromethyl-benzoyl)-piperidin-4-yl]-benzoyl}-guanidine], the IC50 is 337 nM. In the case of `COCC(=O)N1CCC(c2ccc(C(=O)NC(=N)N)cc2S(C)(=O)=O)CC1` [N-{3-methanesulfonyl-4-[1-(2-methoxy-acetyl)-piperidin-4-yl]-benzoyl}-guanidine] it was 24 nM. In the case of `CS(=O)(=O)c1cc(C(=O)NC(=N)N)ccc1C1CCN(C(=O)c2cccc(C(F)(F)F)c2)CC1` [N-{3-methanesulfonyl-4-[1-(3-trifluoromethyl-benzoyl)-piperidin-4-yl]-benzoyl}-guanidine], the IC50 amounted to 54 nM. Consider `CCC(=O)N1CCC(c2ccc(C(=O)NC(=N)N)cc2S(C)(=O)=O)CC1` [N-{3-methanesulfonyl-4-[1-propionyl-piperidin-4-yl]-benzoyl}-guanidine], for which the IC50 is 21 nM.

In the case of `Cc1cc(C(=O)N2CCC(c3ccc(C(=O)NC(=N)N)cc3C(F)(F)F)CC2)nn1C` [N-{4-[1-(1,5-Dimethyl-1H-pyrazole-3-carbonyl)-piperidin-4-yl]-3-trifluoromethyl-benzoyl}-guanidine], the IC50 worked out at 20 nM. `N=C(N)NC(=O)c1ccc(C2CCN(C(=O)C3(N)CCC3)CC2)c(C(F)(F)F)c1` [N-{4-[1-(1-Amino-cyclobutanecarbonyl)-piperidin-4-yl]-3-trifluoromethyl-benzoyl}-guanidine]: the IC50 amounted to 31 nM. On to `N=C(N)NC(=O)c1ccc(C2CCN(C(=O)C3(N)CCCCC3)CC2)c(C(F)(F)F)c1` [N-{4-[1-(1-Amino-cyclohexanecarbonyl)-piperidin-4-yl]-3-trifluoromethyl-benzoyl}-guanidine], for which the IC50 was 33 nM.

As for `N=C(N)NC(=O)c1ccc(C2CCN(C(=O)C3(N)CCCC3)CC2)c(C(F)(F)F)c1` [N-{4-[1-(1-Amino-cyclopentanecarbonyl)-piperidin-4-yl]-3-trifluoromethyl-benzoyl}-guanidine], the IC50 worked out at 2 nM.

For orientation: IC50 means the concentration that gives 50% inhibition.
